According to US8846684B2 (priority 2011, dated 2014):

Test system: WEEV replicon
Test: microbe, parasite or virus in culture
Assay type: cell-based, Western equine encephalitis virus
Conditions: Western equine encephalitis virus; for activity at 50 µM: read-out: 50 μM (% control) Luc

SMILES	activity at 50 µM [%]	IC50 [µM]
CN1CCC(CNC(=O)C2CCN(C(=O)c3cc4ccccc4n3Cc3ccc(Cl)cc3)CC2)CC1 [CCG 205429, 1-(1-(4-chlorobenzyl)-1H-indole-2-carbonyl)-N-((1-methylpiperidin-4-yl)methyl)piperidine-4-carboxamide]	26.8	
O=C(c1cc2ccccc2n1Cc1ccc(Cl)cc1)N1CCC(C(=O)N2CCN(Cc3cccnc3)CC2)CC1 [CCG 205430, (1-(4-chlorobenzyl)-1H-indol-2-yl)(4-(4-(pyridin-3-ylmethyl)piperazine-1-carbonyl)piperidin-1-yl)methanone]	3.55	13.1
Cc1c(C(=O)N2CCC(C(=O)NCc3ccccc3)CC2)n(Cc2ccc(Cl)cc2)c2ccccc12 [CCG 205431, N-benzyl-1-(1-(4-chlorobenzyl)-3-methyl-1H-indole-2-carbonyl)piperidine-4-carboxamide]	48.4	> 100
O=C(NCCc1ccncc1)C1CCN(C(=O)c2cc3ccccc3n2Cc2ccc(Cl)cc2)CC1 [CCG 205432, 1-(1-(4-chlorobenzyl)-1H-indole-2-carbonyl)-N-(2-(pyridin-4-yl)ethyl)piperidine-4-carboxamide]	3.75	0.53
O=C(NCCc1cccnc1)C1CCN(C(=O)c2cc3ccccc3n2Cc2ccc(Cl)cc2)CC1 [CCG 205433, 1-(1-(4-chlorobenzyl)-1H-indole-2-carbonyl)-N-(2-(pyridin-3-yl)ethyl)piperidine-4-carboxamide]	1.9	5.34
Cn1ccc(CNC(=O)C2CCN(C(=O)c3cc4ccccc4n3Cc3ccc(Cl)cc3)CC2)n1 [CCG 205454, 1-(1-(4-chlorobenzyl)-1H-indole-2-carbonyl)-N-((1-methyl-1H-pyrazol-3-yl)methyl)piperidine-4-carboxamide]	46.6	76.9
Cn1cnc(CNC(=O)C2CCN(C(=O)c3cc4ccccc4n3Cc3ccc(Cl)cc3)CC2)c1 [CCG 205455, 1-(1-(4-chlorobenzyl)-1H-indole-2-carbonyl)-N-((1-methyl-1H-imidazol-4-yl)methyl)piperidine-4-carboxamide]	50.8	
O=C(NCCc1ccccn1)C1CCN(C(=O)c2cc3ccccc3n2Cc2ccc(Cl)cc2)CC1 [CCG 205456, 1-(1-(4-chlorobenzyl)-1H-indole-2-carbonyl)-N-(2-(pyridin-2-yl)ethyl)piperidine-4-carboxamide]	24.1	22.4
O=C(c1cc2ccccc2n1Cc1ccc(Cl)cc1)N1CCC(C(=O)N2Cc3ccccc3C2)CC1 [CCG 205470, (1-(4-chlorobenzyl)-1H-indol-2-yl)(4-(isoindoline-2-carbonyl)piperidin-1-yl)methanone]	51.8	
O=C(NC1Cc2ccccc2C1)C1CCN(C(=O)c2cc3ccccc3n2Cc2ccc(Cl)cc2)CC1 [CCG 205471, 1-(1-(4-chlorobenzyl)-1H-indole-2-carbonyl)-N-(2,3-dihydro-1H-inden-2-yl)piperidine-4-carboxamide]	60.9	
O=C(c1cc2ccccc2n1Cc1ccc(Cl)cc1)N1CCC(C(=O)N2CCCC2c2ccccc2)CC1 (centres unmarked) [CCG 205473, (1-(4-chlorobenzyl)-1H-indol-2-yl)(4-(2-phenylpyrrolidine-1-carbonyl)piperidin-1-yl)methanone]	33.9	
O=C(c1cc2ccccc2n1Cc1ccc(Cl)cc1)N1CCC(C(=O)N2CCC(c3ccccc3)C2)CC1 (centres unmarked) [CCG 205474, (1-(4-chlorobenzyl)-1H-indol-2-yl)(4-(3-phenylpyrrolidine-1-carbonyl)piperidin-1-yl)methanone]	57.1	
O=C(c1cc2ccccc2n1Cc1ccc(Cl)cc1)N1CCC(CN2CCCCC2)CC1 [CCG 205476, (1-(4-chlorobenzyl)-1H-indol-2-yl)(4-(piperidin-1-ylmethyl)piperidin-1-yl)methanone]	6.5	9.8
COc1ccc(Cn2c(C(=O)N3CCC(C(=O)N(C)Cc4ccccc4)CC3)cc3ccccc32)cc1 [CCG 205477, N-benzyl-1-(1-(4-methoxybenzyl)-1H-indole-2-carbonyl)-N-methylpiperidine-4-carboxamide]	33.3	16.5
O=C(NCc1ccccc1)C1CCCN(C(=O)c2cc3ccccc3n2Cc2ccc(Cl)cc2)C1 (centres unmarked) [CCG 205483, N-benzyl-1-(1-(4-chlorobenzyl)-1H-indole-2-carbonyl)piperidine-3-carboxamide]	44.1	30.6
CN(Cc1ccccc1)C(=O)C1CCN(C(=O)c2cc3ccccc3n2Cc2ccc([N+](=O)[O-])cc2)CC1 [CCG 205484, N-benzyl-N-methyl-1-(1-(4-nitrobenzyl)-1H-indole-2-carbonyl)piperidine-4-carboxamide]	54	41.9
O=C(c1cc2ccccc2n1Cc1ccc(Cl)cc1)N1CCN(Cc2ccccc2)CC1 [CCG 206327, (4-benzylpiperazin-1-yl)(1-(4-chlorobenzyl)-1H-indol-2-yl)methanone]	33.3	11.5
CC(NC(=O)C1CCN(C(=O)c2cc3ccccc3n2Cc2ccc(Cl)cc2)CC1)c1ccncc1 (centres unmarked) [CCG 206329, 1-(1-(4-chlorobenzyl)-1H-indole-2-carbonyl)-N-(1-(pyridin-4-yl)ethyl)piperidine-4-carboxamide]	12.7	2.39
CN(Cc1ccccc1)C(=O)C1CCN(C(=O)c2cc3ccccc3n2Cc2ccc(C#N)cc2)CC1 [CCG 206330, N-benzyl-1-(1-(4-cyanobenzyl)-1H-indole-2-carbonyl)-N-methylpiperidine-4-carboxamide]	45.2	79.3
COCCn1c(C(=O)N2CCC(C(=O)N(C)Cc3ccccc3)CC2)cc2ccccc21 [CCG 206331, N-benzyl-1-(1-(2-methoxyethyl)-1H-indole-2-carbonyl)-N-methylpiperidine-4-carboxamide]	74.5	
CC(C)Cn1c(C(=O)N2CCC(C(=O)N(C)Cc3ccccc3)CC2)cc2ccccc21 [CCG 206332, N-benzyl-1-(1-isobutyl-1H-indole-2-carbonyl)-N-methylpiperidine-4-carboxamide]	1.7	27.9
CC(=O)n1c(C(=O)N2CCC(C(=O)N(C)Cc3ccccc3)CC2)cc2ccccc21 [CCG 206333, 1-(1-acetyl-1H-indole-2-carbonyl)-N-benzyl-N-methylpiperidine-4-carboxamide]	58.5	
O=C(Nc1ccccc1)C1CCN(C(=O)c2cc3ccccc3n2Cc2ccc(Cl)cc2)CC1 [CCG 206334, 1-(1-(4-chlorobenzyl)-1H-indole-2-carbonyl)-N-phenylpiperidine-4-carboxamide]	77.3	
O=C(NCCc1ccncc1)C1CCN(C(=O)c2cccn2Cc2ccc(Cl)cc2)CC1 [CCG 206381, 1-(1-(4-chlorobenzyl)-1H-pyrrole-2-carbonyl)-N-(2-(pyridin-4-yl)ethyl)piperidine-4-carboxamide]	9.9	0.68
O=C(NCC1Cc2ccccc2C1)C1CCN(C(=O)c2cc3ccccc3n2Cc2ccc(Cl)cc2)CC1 [CCG 206382, 1-(1-(4-chlorobenzyl)-1H-indole-2-carbonyl)-N-((2,3-dihydro-1H-inden-2-yl)methyl)piperidine-4-carboxamide]	25.8	0.53
